Experimental data from patent US20230279020A9, “CARM1 INHIBITORS AND USES THEREOF” (Epizyme, Inc., priority 2013, published 2023).

biological target: Human CARM1 (PRMT4) (Homo sapiens (Human), UniProt Q86X55); experiment: CARM1 enzyme assay on peptide substrate (3H-SAM Flashplate); settings: Biochemical potencies, classification codes; read-out: Biochem IC50
Sequence (Q86X55 other isoform, or with tags, fused parts or gaps isoform Q86X55-1): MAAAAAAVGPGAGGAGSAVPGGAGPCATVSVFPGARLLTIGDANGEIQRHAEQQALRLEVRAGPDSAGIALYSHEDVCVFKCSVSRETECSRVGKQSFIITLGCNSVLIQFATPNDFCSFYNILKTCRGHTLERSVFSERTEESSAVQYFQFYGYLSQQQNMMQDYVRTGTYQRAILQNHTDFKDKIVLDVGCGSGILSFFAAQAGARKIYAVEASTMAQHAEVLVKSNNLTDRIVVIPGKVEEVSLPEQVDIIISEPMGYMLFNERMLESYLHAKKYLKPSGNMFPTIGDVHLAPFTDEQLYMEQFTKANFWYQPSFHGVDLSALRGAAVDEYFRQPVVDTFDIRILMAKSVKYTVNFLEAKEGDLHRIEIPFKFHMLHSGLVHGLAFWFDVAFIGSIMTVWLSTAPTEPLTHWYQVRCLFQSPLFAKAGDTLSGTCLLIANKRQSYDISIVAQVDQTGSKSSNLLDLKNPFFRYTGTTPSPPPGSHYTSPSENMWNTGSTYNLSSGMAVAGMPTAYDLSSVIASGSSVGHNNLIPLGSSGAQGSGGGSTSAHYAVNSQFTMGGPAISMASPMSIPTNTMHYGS

Compound	IC50 [nM]
CNC[C@@H](O)COc1cccc(-c2nc(N[C@@H]3CCN(C4CC4)C[C@@H]3F)c(Cl)c(-c3c(C)noc3C)n2)c1 [Example 68-3]	< 100
CNCC(O)COc1cccc(-c2nc(-c3c(C)noc3C)cc(N3CC[C@H](S(C)(=O)=O)C3)n2)c1 (stereo partly drawn) [Example 69-1a]	< 100
CNC[C@H](O)COc1ccc(Cl)c(-c2nc(-c3c(C)noc3C)cc(N3CC4(CCN(C5CC5)CC4)C3)n2)c1 [Example 69-3]	< 100
CNCC(O)COc1cc(Cl)cc(-c2nc(-c3ccn4cnnc4c3)c(C)c(N(C)C3CCOCC3)n2)c1 (stereo not drawn) [Example 70-1]	< 100
CNCC(O)COc1cccc(-c2nc(-c3c(C)noc3C)cc(N3CCN(C(C)=O)C4(CC4)C3)n2)c1 (stereo not drawn) [Example 70-1a]	< 100
CCS(=O)(=O)N1CCC(Nc2nc(-c3cccc(OCC(O)CNC)c3)nc(-c3c(C)nsc3C)c2C)CC1 (stereo not drawn) [Example 70-3]	< 100
CNCC(O)COc1cccc(-c2nc(NCCCN3CCCC3=O)cc(-c3ccc(C(F)(F)F)nc3)n2)c1 (stereo not drawn) [Example 71-1]	< 100
CNCC(O)COc1cccc(-c2nc(-c3c(C)noc3C)c(C)c(N3CC[C@H](N(C)C(C)=O)C3)n2)c1 (stereo partly drawn) [Example 71-1a]	< 100
CCS(=O)(=O)N1CCOC[C@@H]1CNc1nc(-c2cccc(OCC(O)CNC)c2)nc(-c2c(C)nsc2C)c1C (stereo partly drawn) [Example 71-3]	< 100
CNCC(O)COc1cccc(-c2nc(Nc3cnc(OC)nc3)cc(-c3c(C)noc3C)n2)c1 (stereo not drawn) [Example 72-1a]	< 100
CNC[C@H](O)COc1ccc(F)c(-c2nc(NC3CCOCC3)c(C)c(-c3c(C)noc3C)n2)c1 [Example 72-3]	< 100
CNCC(O)COc1cc(N)cc(-c2nc(NC3CCOCC3)c(C)c(-c3c(C)noc3C)n2)c1 (stereo not drawn) [Example 74-1a]	< 100
CNCC(O)COc1cc(OC)cc(-c2nc(NC3CCOCC3)c(C)c(-c3c(C)noc3C)n2)c1 (stereo not drawn) [Example 75-1a]	< 100
CNCC(O)COc1cc(O)cc(-c2nc(NC3CCOCC3)c(C)c(-c3c(C)noc3C)n2)c1 (stereo not drawn) [Example 76-1a]	< 100
CCOC(=O)N1CCN(c2nc(-c3cccc(OCC(O)CNC)c3)nc(-c3c(C)noc3C)c2C)CC1 (stereo not drawn) [Example 77-1a]	< 100
CNCC(O)COc1cccc(-c2nc(NCC3CCOCC3)cc(-c3c(C)noc3C)n2)c1 (stereo not drawn) [Example 78-1a]	< 100
CNCC(O)COc1cccc(-c2nc(-c3c(C)noc3C)cc(N3CCN(CC(F)F)CC3)n2)c1 (stereo not drawn) [Example 79-1a]	< 100
CNCC(O)COc1cccc(-c2nc(-c3c(C)noc3C)cc(N3C[C@@H]4C[C@H]3CN4S(C)(=O)=O)n2)c1 (stereo partly drawn) [Example 80-1a]	< 100
CNCC(O)COc1cccc(-c2nc(-c3c(C)noc3C)cc(N3CCN(C(=O)OC)CC3)n2)c1 (stereo not drawn) [Example 81-1a]	< 100
CNCC(O)COc1cccc(-c2nc(-c3c(C)noc3C)c(C)c(N3C[C@@H]4C[C@H]3CN4C)n2)c1 (stereo partly drawn) [Example 84-1a]	< 100

Now from value to compound:

IC50 [nM]	Compound
< 100	CNC[C@H](O)COc1ccc(F)c(-c2nc(NC3CCOC(C)C3)c(C)c(-c3c(C)noc3C)n2)c1 (stereo partly drawn) [Example 73-3]
< 100	CNC[C@H](O)COc1ccc(Cl)c(-c2nc(-c3c(C)noc3C)c(C)c(N3CCN(C)C(C(F)F)C3)n2)c1 (stereo partly drawn) [Example 74-3]
< 100	CNC[C@H](O)COc1ccc(Cl)c(-c2nc(-c3c(C)noc3C)c(C)c(N3CCC4(CC3)CN(S(C)(=O)=O)C4)n2)c1 [Example 75-3]
< 100	CNC[C@H](O)COc1ccc(F)c(-c2nc(-c3c(C)noc3C)c(C)c(N3CCC4(CC3)CN(S(C)(=O)=O)C4)n2)c1 [Example 76-3]
< 100	CCN1CCC[C@@H]1CNc1nc(-c2cc(OC[C@@H](O)CNC)ccc2Cl)nc(-c2c(C)noc2C)c1C [Example 77-3]
< 100	CNC[C@H](O)COc1ccc(Cl)c(-c2nc(NCCC(C)(C)OC)c(C)c(-c3c(C)noc3C)n2)c1 [Example 82-3]
< 100	CNC[C@H](O)COc1ccc(F)c(-c2nc(NCCC(C)(C)OC)c(C)c(-c3c(C)noc3C)n2)c1 [Example 83-3]
